Source: US20020137929A1, “1 - (3-heterocyclylphenyl) isothiourea, -isourea, -guanidine and -amidine herbicidal agents” (Intellectual Property Department, BASF Aktiengesellschaft, priority 1998, published 2002)

What was measured:
ECHCG (Barnyardgrass) [1] = assay: Postemergence herbicidal evaluation; assay type: in vivo, Echinochloa crus-galli; conditions: postemergence
How it was run: (§1)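 Two-week seedlings sprayed postemergence at 40 psi; formulation: 1:1 acetone/water, 0.5% TWEEN 20; application ≈0.0156–0.500 kg/ha. Greenhouse grow-out, then 0–9 visual scoring at 4–5 weeks.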

ECHCG (Barnyardgrass) [2] = assay: Preemergence herbicidal evaluation; assay type: in vivo, Echinochloa crus-galli; conditions: rated 4-5 weeks after treatment, rating scale 0-9
How it was run: (§2)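 Steps: mix seeds into potting soil; plant atop ~1 inch soil; spray compound in aqueous acetone (~0.0156-0.500 kg/ha equivalent); maintain in greenhouse with watering; rate visually 0-9 versus control at 4-5 weeks.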

[3] = test system: IPOHE (Morningglory, Ivyleaf); assay: Postemergence herbicidal evaluation; assay type: in vivo, Ipomoea hederacea; conditions: postemergence
How it was run: as §1

[4] = test system: IPOHE (Morningglory, Ivyleaf); assay: Preemergence herbicidal evaluation; assay type: in vivo, Ipomoea hederacea; conditions: rated 4-5 weeks after treatment, rating scale 0-9
How it was run: as §2

[5] = test system: GLXMAW (Soybean, Williams); assay: Preemergence herbicidal evaluation; assay type: in vivo, Glycine max, (L.) Merr. cv Williams; conditions: rated 4-5 weeks after treatment, rating scale 0-9
How it was run: as §2

[6] = test system: CHEAL (Lambsquarters, Common); assay: Preemergence herbicidal evaluation; assay type: in vivo, Chenopodium album; conditions: rated 4-5 weeks after treatment, rating scale 0-9
How it was run: as §2

SETVI (Foxtail, Green) = assay: Postemergence herbicidal evaluation; assay type: in vivo, Setaria viridis; conditions: postemergence
How it was run: as §1

ABUTH (Velvetleaf) [7] = assay: Preemergence herbicidal evaluation; assay type: in vivo, Abutilon theophrasti; conditions: rated 4-5 weeks after treatment, rating scale 0-9
How it was run: as §2

[8] = test system: TRZAWR (Wheat, Winter, cv Riband); assay: Preemergence herbicidal evaluation; assay type: in vivo, Triticum aestivum; conditions: rated 4-5 weeks after treatment, rating scale 0-9
How it was run: as §2

[9] = test system: CHEAL (Lambsquarters, Common); assay: Postemergence herbicidal evaluation; assay type: in vivo, Chenopodium album; conditions: postemergence
How it was run: as §1

ABUTH (Velvetleaf) [10] = assay: Postemergence herbicidal evaluation; assay type: in vivo, Abutilon theophrasti; conditions: postemergence
How it was run: as §1

ORYSAT (Rice, Tebonnet) = assay: Postemergence herbicidal evaluation; assay type: in vivo, Oryza sativa, (L.) Tebonnet; conditions: postemergence
How it was run: as §1

CASOB (Sicklepod) = assay: Preemergence herbicidal evaluation; assay type: in vivo, Cassia obtusifolia; conditions: rated 4-5 weeks after treatment, rating scale 0-9
How it was run: as §2

ZEAMX (Corn, Field) [11] = assay: Preemergence herbicidal evaluation; assay type: in vivo, Zea mays; conditions: rated 4-5 weeks after treatment, rating scale 0-9
How it was run: as §2

ZEAMX (Corn, Field) [12] = assay: Postemergence herbicidal evaluation; assay type: in vivo, Zea mays; conditions: postemergence
How it was run: as §1

Cn1c(C(F)(F)F)cc(=O)n(-c2cc(N=C3SCC(=O)N3Cc3ccc(Cl)cc3)c(Cl)cc2F)c1=O [Compound 145, 3-{4-Chloro-5-{[3-(p-chlorobenzyl)-4-oxo-2-thiazolidinylidene]amino}-2-fluorophenyl}-1-methyl-6-(trifluoromethyl)-2,4(1H,3H)-pyrimidinedione]
4.0: herbicidal rating ZEAMX (ZEAMX (Corn, Field) [12]; rate 0.0156 kg/ha) | herbicidal rating ZEAMX (ZEAMX (Corn, Field) [12]; rate 0.0313 kg/ha)
0.0: Preemergence herbicidal rating ECHCG (ECHCG (Barnyardgrass) [2]; rate 0.0156 kg/ha) | Preemergence herbicidal rating ECHCG (ECHCG (Barnyardgrass) [2]; rate 0.0313 kg/ha) | Preemergence herbicidal rating IPOHE ([4]; rate 0.0156 kg/ha) | Preemergence herbicidal rating IPOHE ([4]; rate 0.0313 kg/ha) | Preemergence herbicidal rating IPOHE ([4]; rate 0.0625 kg/ha) | Preemergence herbicidal rating GLXMAW ([5]; rate 0.0156 kg/ha) | Preemergence herbicidal rating GLXMAW ([5]; rate 0.0313 kg/ha) | Preemergence herbicidal rating GLXMAW ([5]; rate 0.0625 kg/ha) | Preemergence herbicidal rating ABUTH (ABUTH (Velvetleaf) [7]; rate 0.0156 kg/ha) | Preemergence herbicidal rating TRZAWR ([8]; rate 0.0156 kg/ha) | Preemergence herbicidal rating TRZAWR ([8]; rate 0.1250 kg/ha) | Preemergence herbicidal rating ZEAMX (ZEAMX (Corn, Field) [11]; rate 0.0156 kg/ha) | Preemergence herbicidal rating ZEAMX (ZEAMX (Corn, Field) [11]; rate 0.0313 kg/ha) | Preemergence herbicidal rating ZEAMX (ZEAMX (Corn, Field) [11]; rate 0.0625 kg/ha)
9.0: herbicidal rating IPOHE ([3]; rate 0.0156 kg/ha) | herbicidal rating IPOHE ([3]; rate 0.0313 kg/ha) | herbicidal rating IPOHE ([3]; rate 0.0625 kg/ha) | Preemergence herbicidal rating CHEAL ([6]; rate 0.0313 kg/ha) | Preemergence herbicidal rating CHEAL ([6]; rate 0.1250 kg/ha) | Preemergence herbicidal rating CHEAL ([6]; rate 0.2500 kg/ha) | Preemergence herbicidal rating ABUTH (ABUTH (Velvetleaf) [7]; rate 0.1250 kg/ha) | herbicidal rating CHEAL ([9]; rate 0.0313 kg/ha) | herbicidal rating CHEAL ([9]; rate 0.0625 kg/ha) | herbicidal rating ABUTH (ABUTH (Velvetleaf) [10]; rate 0.0156 kg/ha) | herbicidal rating ABUTH (ABUTH (Velvetleaf) [10]; rate 0.0313 kg/ha) | herbicidal rating ABUTH (ABUTH (Velvetleaf) [10]; rate 0.0625 kg/ha)
5.0: Preemergence herbicidal rating IPOHE ([4]; rate 0.2500 kg/ha) | herbicidal rating SETVI (SETVI (Foxtail, Green); rate 0.0625 kg/ha) | herbicidal rating CHEAL ([9]; rate 0.0156 kg/ha) | herbicidal rating ZEAMX (ZEAMX (Corn, Field) [12]; rate 0.0625 kg/ha)
2.5: herbicidal rating ORYSAT (ORYSAT (Rice, Tebonnet); rate 0.0156 kg/ha) | herbicidal rating ORYSAT (ORYSAT (Rice, Tebonnet); rate 0.0313 kg/ha)
3.0: herbicidal rating ECHCG (ECHCG (Barnyardgrass) [1]; rate 0.0313 kg/ha) | herbicidal rating ECHCG (ECHCG (Barnyardgrass) [1]; rate 0.0625 kg/ha) | herbicidal rating SETVI (SETVI (Foxtail, Green); rate 0.0313 kg/ha) | Preemergence herbicidal rating ABUTH (ABUTH (Velvetleaf) [7]; rate 0.0625 kg/ha)
3.5: herbicidal rating ORYSAT (ORYSAT (Rice, Tebonnet); rate 0.0625 kg/ha)
2.0: herbicidal rating ECHCG (ECHCG (Barnyardgrass) [1]; rate 0.0156 kg/ha) | Preemergence herbicidal rating GLXMAW ([5]; rate 0.2500 kg/ha) | Preemergence herbicidal rating ABUTH (ABUTH (Velvetleaf) [7]; rate 0.0313 kg/ha) | Preemergence herbicidal rating ZEAMX (ZEAMX (Corn, Field) [11]; rate 0.2500 kg/ha)
7.0: Preemergence herbicidal rating IPOHE ([4]; rate 0.1250 kg/ha) | Preemergence herbicidal rating CHEAL ([6]; rate 0.0156 kg/ha) | Preemergence herbicidal rating CHEAL ([6]; rate 0.0625 kg/ha) | Preemergence herbicidal rating CASOB (CASOB (Sicklepod); rate 0.2500 kg/ha)
1.0: Preemergence herbicidal rating ECHCG (ECHCG (Barnyardgrass) [2]; rate 0.0625 kg/ha) | Preemergence herbicidal rating ECHCG (ECHCG (Barnyardgrass) [2]; rate 0.1250 kg/ha) | Preemergence herbicidal rating ECHCG (ECHCG (Barnyardgrass) [2]; rate 0.2500 kg/ha) | Preemergence herbicidal rating GLXMAW ([5]; rate 0.1250 kg/ha) | herbicidal rating SETVI (SETVI (Foxtail, Green); rate 0.0156 kg/ha) | Preemergence herbicidal rating TRZAWR ([8]; rate 0.0313 kg/ha) | Preemergence herbicidal rating TRZAWR ([8]; rate 0.0625 kg/ha) | Preemergence herbicidal rating TRZAWR ([8]; rate 0.2500 kg/ha) | Preemergence herbicidal rating CASOB (CASOB (Sicklepod); rate 0.0156 kg/ha) | Preemergence herbicidal rating CASOB (CASOB (Sicklepod); rate 0.0313 kg/ha) | Preemergence herbicidal rating CASOB (CASOB (Sicklepod); rate 0.1250 kg/ha) | Preemergence herbicidal rating ZEAMX (ZEAMX (Corn, Field) [11]; rate 0.1250 kg/ha)
6.0: Preemergence herbicidal rating ABUTH (ABUTH (Velvetleaf) [7]; rate 0.2500 kg/ha) | Preemergence herbicidal rating CASOB (CASOB (Sicklepod); rate 0.0625 kg/ha)
